Laboratory results taken from patent US7041844B2, “Irreversible non-steroidal antagonist compound and its use in the treatment of prostate cancer” (The University Of Tennessee Research Corporation, priority 1996, dated 2006).
pKd: −log10 of the molar value.

Tests used:
rat prostate AR = molecular target: T1, rat prostate AR (Rattus norvegicus, UniProt P15207); assay: Saturation binding of 3H-MIB in the AR preparation (Scatchard analysis)
T1 sequence (P15207 1-902): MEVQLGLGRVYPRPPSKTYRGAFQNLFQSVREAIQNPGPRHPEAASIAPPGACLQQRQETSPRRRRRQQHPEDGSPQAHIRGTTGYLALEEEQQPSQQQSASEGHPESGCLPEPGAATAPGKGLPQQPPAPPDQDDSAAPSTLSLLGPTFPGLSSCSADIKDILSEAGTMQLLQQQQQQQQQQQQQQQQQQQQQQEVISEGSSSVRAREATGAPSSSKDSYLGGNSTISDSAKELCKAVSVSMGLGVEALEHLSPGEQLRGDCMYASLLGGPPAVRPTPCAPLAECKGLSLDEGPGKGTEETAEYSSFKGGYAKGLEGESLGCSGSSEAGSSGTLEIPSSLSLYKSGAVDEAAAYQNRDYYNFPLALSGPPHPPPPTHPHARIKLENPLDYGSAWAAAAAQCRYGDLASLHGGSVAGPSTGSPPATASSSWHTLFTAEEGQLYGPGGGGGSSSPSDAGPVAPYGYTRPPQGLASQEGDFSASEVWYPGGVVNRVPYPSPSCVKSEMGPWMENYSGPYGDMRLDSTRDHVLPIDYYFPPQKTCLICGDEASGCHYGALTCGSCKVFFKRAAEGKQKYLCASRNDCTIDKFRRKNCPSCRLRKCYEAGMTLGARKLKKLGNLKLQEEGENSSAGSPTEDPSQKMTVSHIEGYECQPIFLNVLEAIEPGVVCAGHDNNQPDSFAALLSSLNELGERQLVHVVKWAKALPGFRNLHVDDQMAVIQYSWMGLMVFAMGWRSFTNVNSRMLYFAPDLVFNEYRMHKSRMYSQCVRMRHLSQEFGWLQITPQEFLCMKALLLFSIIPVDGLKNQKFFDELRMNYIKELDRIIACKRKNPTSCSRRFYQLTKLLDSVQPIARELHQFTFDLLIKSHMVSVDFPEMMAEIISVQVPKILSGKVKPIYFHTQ

rat ventral prostate AR = molecular target: T2, rat ventral prostate AR (Rattus norvegicus, UniProt P15207); assay: Competitive displacement of 3H-MIB from AR binding sites; conditions: comparison of Ki values
T2 construct: from tissue; host or cells: ventral prostate cytosol of castrated male Sprague-Dawley rats
T2 sequence (P15207 1-902): T1 sequence (P15207 1-902)
Description: Receptor binding studies for the compounds shown in Table 3 were conducted as follows.
1. AR were isolated from rat ventral prostate tissue by differential centrifugation.
2. Samples of the following composition listed in Table 4 were incubated at 4° C. for 18 hours:
Percent Specific Binding=(B/B0)×100
Data were computer fitted to the equation: […]
Equilibrium dissociation constant of each isomer (Ki) was determined using the equation.
AR isolation was performed as follows.

Row | SMILES | pKd (rat prostate AR) | AR binding affinity (result in words) (rat ventral prostate AR)
1 | C[C@@H]1CC2=CC(=O)CC[C@@H]2[C@H]2CC[C@@]3(C)[C@@H](CC[C@]3(C)O)[C@@H]21 [MIB, Mibolerone] | 9.74 | 
2 | O=[N+]([O-])SN=C=S [S-NT-NCS, S-nitro-thio-isothiocyanate] |  | close to that of S-Casodex
3 | O=C(CCl)NS[N+](=O)[O-] [S-NT-CAA, S-nitro-thio chloroacetamide] |  | close to that of S-Casodex
